Laboratory results: PubChem BioAssay AID248 (DTP/NCI, 2004)
Several values for one entry are separate records, joined by “and”; a condition that tells them apart may be missing. Equal values may be shown once. Toxic doses and inconclusive results are not listed. No stated cut-off is given here; in the data, active means T/C of 150% or more; inactive means T/C below 125%.

System: L1210 leukemia ip in BDF1 mice, survival T/C
Assay: NCI In Vivo Anticancer Drug Screen. Data for tumor model L1210 Leukemia (intraperitoneal) in B6D2F1 (BDF1) mice
Details: endpoint: mean survival time, higher = longer survival
Outline: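 Read-out is survival time, reported as the treated-group measurement over the vehicle-control measurement.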

[1] = dose: 100.0 mg/kg/injection, schedule: Q01DX009 (ip), vehicle: saline
[2] = dose: 200.0 mg/kg/injection, schedule: Q01DX009 (ip), vehicle: saline
[3] = dose: 100.0 mg/kg/injection, schedule: Q01DX009 (ip), vehicle: saline with Tween-80
[4] = dose: 100.0 mg/kg/injection, schedule: Q04DX002 (ip), vehicle: saline with Tween-80
[5] = dose: 200.0 mg/kg/injection, schedule: Q01DX009 (ip), vehicle: saline with Tween-80
[6] = dose: 200.0 mg/kg/injection, schedule: Q04DX002 (ip), vehicle: saline with Tween-80
[7] = dose: 400.0 mg/kg/injection, schedule: Q04DX002 (ip), vehicle: saline with Tween-80
[8] = dose: 100.0 mg/kg/injection, schedule: Q01DX001 (ip), vehicle: saline
[9] = dose: 200.0 mg/kg/injection, schedule: Q01DX001 (ip), vehicle: saline
[10] = dose: 400.0 mg/kg/injection, schedule: Q01DX001 (ip), vehicle: saline
[11] = dose: 25.0 mg/kg/injection, schedule: Q01DX009 (ip), vehicle: saline
[12] = dose: 50.0 mg/kg/injection, schedule: Q01DX009 (ip), vehicle: saline
[13] = dose: 100.0 mg/kg/injection, schedule: Q01DX009 (ip), vehicle: Klucel (hydroxypropylcellulose) (HPC)
[14] = dose: 100.0 mg/kg/injection, schedule: Q04DX003 (ip), vehicle: Klucel (hydroxypropylcellulose) (HPC)
[15] = dose: 200.0 mg/kg/injection, schedule: Q01DX009 (ip), vehicle: Klucel (hydroxypropylcellulose) (HPC)
[16] = dose: 200.0 mg/kg/injection, schedule: Q04DX003 (ip), vehicle: Klucel (hydroxypropylcellulose) (HPC)
[17] = dose: 400.0 mg/kg/injection, schedule: Q01DX009 (ip), vehicle: Klucel (hydroxypropylcellulose) (HPC)
[18] = dose: 400.0 mg/kg/injection, schedule: Q04DX003 (ip), vehicle: Klucel (hydroxypropylcellulose) (HPC)

Measured: T/C

CCC(C)C(=O)Nc1ccc(Cl)c(Cl)c1 (centres undefined)
inactive: dose: 100.0 mg/kg/injection, schedule: Q01DX001 (ip), vehicle: Klucel (hydroxypropylcellulose) (HPC) 108 % of control | dose: 200.0 mg/kg/injection, schedule: Q01DX001 (ip), vehicle: Klucel (hydroxypropylcellulose) (HPC) 95 % of control | dose: 222.0 mg/kg/injection, schedule: Q01DX Z (ip), vehicle: methylcellulose (MC) 90 % of control | dose: 333.0 mg/kg/injection, schedule: Q01DX Z (ip), vehicle: methylcellulose (MC) 102 % of control | dose: 400.0 mg/kg/injection, schedule: Q01DX001 (ip), vehicle: Klucel (hydroxypropylcellulose) (HPC) 95 % of control | dose: 500.0 mg/kg/injection, schedule: Q01DX Z (ip), vehicle: methylcellulose (MC) 96 % of control

CC(C)C1(Br)C(=O)NC(=O)NC1=O
inactive: dose: 6.25 mg/kg/injection, schedule: Q01DX009 (ip), vehicle: Klucel (hydroxypropylcellulose) (HPC) 103 % of control | dose: 12.5 mg/kg/injection, schedule: Q01DX009 (ip), vehicle: Klucel (hydroxypropylcellulose) (HPC) 108 % of control

Cc1cc(CO)c(O)c(CO)c1
inactive: dose: 100.0 mg/kg/injection, schedule: Q01DX001 (ip), vehicle: other 108 % of control | [1] 97 % of control | dose: 200.0 mg/kg/injection, schedule: Q01DX001 (ip), vehicle: other 100 % of control | [2] 103 % of control | dose: 400.0 mg/kg/injection, schedule: Q01DX001 (ip), vehicle: other 103 % of control | dose: 400.0 mg/kg/injection, schedule: Q01DX009 (ip), vehicle: saline 103 % of control

C=COc1c(Cl)cc(Cl)cc1Cl
inactive: [3] 93 % of control and 101 % of control | [4] 105 % of control and 107 % of control | [5] 101 % of control and 102 % of control | [6] 97 % of control and 98 % of control | dose: 400.0 mg/kg/injection, schedule: Q01DX009 (ip), vehicle: saline with Tween-80 100 % of control and 104 % of control | [7] 94 % of control and 101 % of control

CCOC(=O)c1nc2c(OC)nn(O)cc-2c1Br
inactive: dose: 25.0 mg/kg/injection, schedule: Q04DX002 (ip), vehicle: saline with Tween-80 92 % of control | dose: 50.0 mg/kg/injection, schedule: Q04DX002 (ip), vehicle: saline with Tween-80 89 % of control | [4] 96 % of control

CC1(C)SC(C(NC(=O)COc2ccccc2)C(=O)O)NC1C(=O)O (centres undefined)
inactive: dose: 50.0 mg/kg/injection, schedule: Q01DX009 (ip), vehicle: saline with Tween-80 101 % of control | [3] 95 % of control | [5] 88 % of control

C#CC(C)OCC(C)OC(C)=O (centres undefined)
inactive: dose: 25.0 mg/kg/injection, schedule: Q01DX009 (ip), vehicle: acetone 95 % of control | dose: 50.0 mg/kg/injection, schedule: Q01DX009 (ip), vehicle: acetone 94 % of control | dose: 100.0 mg/kg/injection, schedule: Q01DX009 (ip), vehicle: acetone 99 % of control | dose: 100.0 mg/kg/injection, schedule: Q04DX003 (ip), vehicle: acetone 100 % of control | dose: 150.0 mg/kg/injection, schedule: Q01DX009 (ip), vehicle: saline 115 % of control | dose: 225.0 mg/kg/injection, schedule: Q01DX009 (ip), vehicle: saline 95 % of control | dose: 335.0 mg/kg/injection, schedule: Q01DX009 (ip), vehicle: saline 93 % of control

CCOC(=O)c1[nH]c(C)c(CCCC(=O)O)c1C
inactive: dose: 75.0 mg/kg/injection, schedule: Q01DX001 (ip), vehicle: acetone 102 % of control | dose: 150.0 mg/kg/injection, schedule: Q01DX001 (ip), vehicle: acetone 104 % of control

Cn1nc(C#N)c2c(N)ncnc21
inactive: [8] 104 % of control | [9] 104 % of control | [10] 101 % of control

CC(C)C1C(=O)N2CCCC2C2(O)OC(NC(=O)C3C=C4c5cccc6[nH]cc(c56)CC4N(C)C3)(C(C)C)C(=O)N12 (centres undefined)
inactive: [11] 94 % of control | [12] 91 % of control | dose: 50.0 mg/kg/injection, schedule: Q04DX003 (ip), vehicle: saline 106 % of control | [1] 94 % of control | dose: 100.0 mg/kg/injection, schedule: Q04DX003 (ip), vehicle: saline 101 % of control | dose: 200.0 mg/kg/injection, schedule: Q04DX003 (ip), vehicle: saline 108 % of control | dose: 400.0 mg/kg/injection, schedule: Q04DX003 (ip), vehicle: saline 95 % of control

CC(=O)NNc1ccc([N+](=O)[O-])cn1
inactive: [8] 100 % of control | [9] 100 % of control | [10] 100 % of control

CN(C)C=Nc1ccc(C#N)cc1
inactive: dose: 100.0 mg/kg/injection, schedule: Q04DX002 (ip), vehicle: saline 98 % of control | dose: 200.0 mg/kg/injection, schedule: Q04DX002 (ip), vehicle: saline 91 % of control | dose: 400.0 mg/kg/injection, schedule: Q04DX002 (ip), vehicle: saline 91 % of control

CCOP(=O)(OCC)C(c1ccccc1)(c1ccccc1)c1ccccc1
inactive: [4] 90 % of control | [6] 90 % of control | [7] 90 % of control

O=c1ccccn1C/C(=N\O)c1ccccc1
inactive: [13] 98 % of control | [14] 107 % of control | [15] 100 % of control | [16] 98 % of control | [17] 107 % of control | [18] 100 % of control

O=C(Nc1ccc(Cl)cc1)c1cc(Cl)cc(Cl)c1Br
inactive: dose: 100.0 mg/kg/injection, schedule: Q01DX001 (ip), vehicle: carboxymethylcellulose (CMC) 95 % of control | dose: 200.0 mg/kg/injection, schedule: Q01DX001 (ip), vehicle: carboxymethylcellulose (CMC) 93 % of control | dose: 400.0 mg/kg/injection, schedule: Q01DX001 (ip), vehicle: carboxymethylcellulose (CMC) 91 % of control

Cc1ccc(S(=O)(=O)NC(=O)N(Cc2ccccc2)C(C)(C)C)cc1
inactive: dose: 25.0 mg/kg/injection, schedule: Q01DX009 (ip), vehicle: Klucel (hydroxypropylcellulose) (HPC) 107 % of control | dose: 50.0 mg/kg/injection, schedule: Q01DX009 (ip), vehicle: Klucel (hydroxypropylcellulose) (HPC) 100 % of control

CSC(=S)NNC(=O)c1ccc([N+](=O)[O-])cc1
inactive: dose: 6.25 mg/kg/injection, schedule: Q04DX003 (ip), vehicle: saline sonified 96 % of control | dose: 12.5 mg/kg/injection, schedule: Q04DX003 (ip), vehicle: saline sonified 98 % of control

Cc1cccn2c(=O)cc(O)nc12
inactive: dose: 50.0 mg/kg/injection, schedule: Q01DX001 (ip), vehicle: saline 112 % of control | [8] 110 % of control | [9] 116 % of control | [10] 103 % of control

NC(=S)/C(N)=N/Nc1ccc(Cl)cc1
inactive: dose: 12.5 mg/kg/injection, schedule: Q01DX009 (ip), vehicle: saline with Tween-80 92 % of control | dose: 12.5 mg/kg/injection, schedule: Q01DX009 (ip), vehicle: saline 108 % of control | dose: 25.0 mg/kg/injection, schedule: Q01DX009 (ip), vehicle: saline with Tween-80 92 % of control | [11] 120 % of control | [12] 103 % of control

C=C1C(=O)OCC1(C(=O)OCC)C(=O)OCC
inactive: dose: 5.0 mg/kg/injection, schedule: Q01DX009 (ip), vehicle: saline 98 % of control | dose: 10.0 mg/kg/injection, schedule: Q01DX009 (ip), vehicle: saline 103 % of control | dose: 20.0 mg/kg/injection, schedule: Q01DX009 (ip), vehicle: saline 95 % of control

Nc1[nH]c(=O)[nH]c(=O)c1Br
inactive: [13] 97 % of control | [14] 100 % of control | [15] 103 % of control | [16] 100 % of control | [17] 101 % of control | [18] 97 % of control

O=C1OC(c2ccc(Cl)cc2)Sc2ccccc21 (centres undefined)
inactive: dose: 100.0 mg/kg/injection, schedule: Q04DX003 (ip), vehicle: saline with Tween-80 103 % of control | dose: 200.0 mg/kg/injection, schedule: Q04DX003 (ip), vehicle: saline with Tween-80 94 % of control | dose: 400.0 mg/kg/injection, schedule: Q04DX003 (ip), vehicle: saline with Tween-80 100 % of control

Cn1cnc2cc(Cl)ccc21
inactive: [12] 101 % of control | [1] 104 % of control | [2] 97 % of control

O=[N+]([O-])c1ccc(Cl)cc1C1OCCO1
inactive: [8] 93 % of control | [9] 93 % of control | [10] 104 % of control
